From ChEMBL document CHEMBL5584227, “Piezo1 and its inhibitors: Overview and perspectives” (Eur J Med Chem, 2024) come the findings set out here.

Structures are written as SMILES. pIC50: −log10 of the molar value.

Assay [1] concerns the target Piezo1 (Homo sapiens). The assay can be described thus: Antagonist activity at Yoda1-activated human Piezo1 in HUVECs assessed as inhibition of calcium influx by calcium fluorescence assay.
For assay [2], the target named is Piezo1 (Homo sapiens). Kind of assay: Antagonist activity at human Piezo1.
The target in assay [3] is Piezo1 (Homo sapiens). Kind of assay: Inhibition of human Piezo1 assessed as intracellular calcium influx measured for 30 mins by Fluo-4 AM dye based fluorescence analysis. Background: A change in cytosolic calcium serves as a functional read-out for many receptors and channels.
Assay [4] has as its target Amyloid-beta precursor protein (Homo sapiens, UniProt P05067). Kind of assay: Inhibition of amyloid beta (1 to 42) (unknown origin) aggregation incubated for 24 hrs by ThT assay.

Sequence of Amyloid-beta precursor protein (P05067 whole entry): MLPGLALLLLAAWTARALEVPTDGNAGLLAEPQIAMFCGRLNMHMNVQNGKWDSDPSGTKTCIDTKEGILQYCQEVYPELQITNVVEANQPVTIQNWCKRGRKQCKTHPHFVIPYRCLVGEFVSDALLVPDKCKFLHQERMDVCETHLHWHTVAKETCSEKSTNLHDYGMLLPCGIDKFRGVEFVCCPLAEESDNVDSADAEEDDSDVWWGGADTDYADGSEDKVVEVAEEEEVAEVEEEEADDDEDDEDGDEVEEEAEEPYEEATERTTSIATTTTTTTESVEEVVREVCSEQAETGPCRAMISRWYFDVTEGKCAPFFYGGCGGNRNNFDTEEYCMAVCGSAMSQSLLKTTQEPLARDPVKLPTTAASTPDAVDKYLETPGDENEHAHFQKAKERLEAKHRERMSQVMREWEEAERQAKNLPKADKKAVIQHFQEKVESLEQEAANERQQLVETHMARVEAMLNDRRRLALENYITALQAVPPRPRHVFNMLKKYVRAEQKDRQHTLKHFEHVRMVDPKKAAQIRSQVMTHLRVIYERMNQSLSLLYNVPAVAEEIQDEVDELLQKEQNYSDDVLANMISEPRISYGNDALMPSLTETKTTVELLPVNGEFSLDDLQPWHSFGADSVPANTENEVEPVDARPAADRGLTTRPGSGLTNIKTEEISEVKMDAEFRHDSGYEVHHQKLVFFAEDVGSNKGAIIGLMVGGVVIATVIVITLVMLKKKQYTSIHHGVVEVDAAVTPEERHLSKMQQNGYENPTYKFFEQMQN

Broadly, the pIC50 is the negative decadic logarithm of the IC50, by convention in mol/L. On to `O=C(/C=C/c1ccc(O)c2c1[C@H](C(=O)O[C@H](Cc1ccc(O)c(O)c1)C(=O)O)[C@@H](c1ccc(O)c(O)c1)O2)O[C@H](Cc1ccc(O)c(O)c1)C(=O)O`, for which the negative-log IC50 (pIC50) at Piezo1 (Homo sapiens) [1] is 5.86.
Molecule `Clc1cccc(Cl)c1CSc1nnc(-c2ccc[nH]2)o1` showed a pIC50 at Piezo1 (Homo sapiens) [2] of 5.89.
Consider `C[C@@H]1O[C@@H](O[C@H]2[C@H](OC(=O)[C@]34CCC(C)(C)C[C@H]3C3=CC[C@@H]5[C@@]6(C)C[C@H](O)[C@@H]7O[C@@H]8O[C@H](CO)[C@@H](O)[C@H](O)[C@H]8O[C@@H]8OC[C@H](O)[C@H](O)[C@H]8OC(=O)CC(C)(O)CC(=O)OC[C@@]7(C)[C@@H]6CC[C@@]5(C)[C@]3(C)CC4)OC[C@H](O)[C@@H]2O)[C@H](O)[C@H](O[C@@H]2OC[C@@H](O)[C@H](O)[C@H]2O)[C@H]1O` (some centres undefined), for which the negative-log IC50 (pIC50) on Piezo1 (Homo sapiens) [3] was 5.95.
Regarding `CCCCCCCCCCCCCCCCC(=O)O` [HEPTADECANOIC ACID], in assay [4], the negative logarithm of the IC50 (pIC50) is 4.55.
